Test results reported in the NIST ThermoML archive (doi:10.1016/j.jct.2018.03.014).

Experiment: cn = amount concentration of the nth substance listed, in mol/dm3
Conditions: 298.15 K, 101.3 kPa, Liquid, Taylor dispersion method

NCC(=O)O [2-aminoacetic acid] + O
binary diffusion coefficient (c1 = 0.005): 1.06e-09 m2/s
binary diffusion coefficient (c1 = 0.1): 1.04e-09 m2/s
